ChEMBL document CHEMBL5528074 (J Med Chem, 2024)
pEC50, pIC50: −log10 of the molar value. Values belong to the compound of their own block, whether it stands above or below them. Activity calls are given as the source filed them. The rule behind the calls is not given here.

Columns and labels:
[1] = target: T1, G-protein coupled receptor 183 (Homo sapiens, UniProt P32249)
Description: Antagonist activity at GPR183 (unknown origin) transfected in HEK293 cells incubated for 30 mins by Glosensor cAMP assay

[2] = target: T1, G-protein coupled receptor 183; assay: Agonist activity at GPR183 (unknown origin) transfected in HEK293 cells assessed as reduction in forskolin induced cAMP generation incubated for 30 mins by Glosensor cAMP assay; type: functional, cell-based
[3] = target: T1, G-protein coupled receptor 183; assay: Agonist activity at GPR183 (unknown origin) transfected in HEK293 cells cotransfected with CRE-luciferase plasmid assessed as impairment of forskolin induced luciferase activity preincubated for 30 mins followed by forskolin induction and measured after 4 hrs by dual luciferase assay; type: functional, cell-based
[4] = target: T1, G-protein coupled receptor 183; assay: Agonist activity at GPR183 (unknown origin) transfected in HEK293 cells co-expressing LgBiT-fused SmBiT-beta-arrestin assessed as beta-arrestin recruitment using nanoluciferase as substrate incubated for 30 mins by bioluminescence based NanoBiT assay; type: functional, cell-based
[5] = Half life in C57BL/6 mouse at 1 mg/kg, iv measured upto 24 hrs by LC-MS/MS analysis; type: ADME, organism-based; conditions: in vivo
[6] = Cmax in C57BL/6 mouse at 1 mg/kg, iv measured upto 24 hrs by LC-MS/MS analysis; type: ADME, organism-based; conditions: in vivo
[7] = AUC infinity in C57BL/6 mouse at 1 mg/kg, iv measured upto 24 hrs by LC-MS/MS analysis; type: ADME, organism-based; conditions: in vivo
[8] = Apparent volume of distribution in C57BL/6 mouse at 1 mg/kg, iv measured upto 24 hrs by LC-MS/MS analysis; type: ADME, organism-based; conditions: in vivo, read-out: Vz
[9] = Clearance in C57BL/6 mouse at 1 mg/kg, iv measured upto 24 hrs by LC-MS/MS analysis; type: ADME, organism-based; conditions: in vivo
[10] = Half life in C57BL/6 mouse at 3 mg/kg, po measured upto 24 hrs by LC-MS/MS analysis; type: ADME, organism-based; conditions: in vivo
[11] = Cmax in C57BL/6 mouse at 3 mg/kg, po measured upto 24 hrs by LC-MS/MS analysis; type: ADME, organism-based; conditions: in vivo
[12] = AUC infinity in C57BL/6 mouse at 3 mg/kg, po measured upto 24 hrs by LC-MS/MS analysis; type: ADME, organism-based; conditions: in vivo
[13] = Oral bioavailability in C57BL/6 mouse at 3 mg/kg measured upto 24 hrs by LC-MS/MS analysis; type: ADME, organism-based; conditions: in vivo
[14] = Metabolic stability in human liver microsomes assessed as half life at 10 uM incubated for 60 mins in presence of NADPH/UDPGA by LC-MS/MS analysis; type: ADME, Microsome; conditions: 1 h
[15] = Metabolic stability in mouse liver microsomes assessed as half life at 10 uM incubated for 60 mins in presence of NADPH/UDPGA by LC-MS/MS analysis; type: ADME, Microsome; conditions: 1 h
[16] = Metabolic stability in dog liver microsomes assessed as half life at 10 uM incubated for 60 mins in presence of NADPH/UDPGA by LC-MS/MS analysis; type: ADME, Canis lupus familiaris, Microsome
[17] = Metabolic stability in monkey liver microsomes assessed as half life at 10 uM incubated for 60 mins in presence of NADPH/UDPGA by LC-MS/MS analysis; type: ADME, Macaca mulatta, Microsome; conditions: rhesus monkey, 1 h
[18] = target: T1, G-protein coupled receptor 183; assay: Antagonist activity at GPR183 (unknown origin) transfected in HEK293 cells assessed as reversal of 7alpha,25-Dihydroxycholesterol induced cAMP reduction incubated for 30 mins by Glosensor cAMP assay; type: functional, cell-based
[19] = target: T1, G-protein coupled receptor 183; assay: Antagonist activity at GPR183 (unknown origin) transfected in HEK293 cells cotransfected with CRE-luciferase plasmid assessed as restoration of luciferase activity preincubated for 30 mins followed by 7alpha,25-dihydroxycholesterol induction and measured after 4 hrs by dual luciferase assay; type: functional, cell-based
[20] = target: T1, G-protein coupled receptor 183; assay: Antagonist potency at GPR183 (unknown origin) transfected in HEK293 cells by schild plot analysis; type: cell-based; conditions: read-out: pA2 (converted)
[21] = target: T1, G-protein coupled receptor 183; assay: Antagonist activity at GPR183 (unknown origin) transfected in HEK293 cells co-expressing LgBiT-fused SmBiT-beta-arrestin assessed as reduction in beta-arrestin recruitment using nanoluciferase as substrate incubated for 30 mins by bioluminescence based NanoBiT assay; type: functional, cell-based
[22] = Metabolic stability in rat liver microsomes assessed as compound remaining at 1 uM incubated for 60 mins in presence of NADPH/UDPGA by LC-MS/MS analysis; type: ADME, Microsome; conditions: read-out: Stability
[23] = Metabolic stability in mouse liver microsomes assessed as compound remaining at 1 uM incubated for 60 mins in presence of NADPH/UDPGA by LC-MS/MS analysis; type: ADME, Microsome; conditions: 1 h
[24] = Metabolic stability in dog liver microsomes assessed as compound remaining at 1 uM incubated for 60 mins in presence of NADPH/UDPGA by LC-MS/MS analysis; type: ADME, Canis lupus familiaris, Microsome; conditions: read-out: Stability
[25] = Metabolic stability in monkey liver microsomes assessed as compound remaining at 1 uM incubated for 60 mins in presence of NADPH/UDPGA by LC-MS/MS analysis; type: ADME, Macaca mulatta, Microsome; conditions: rhesus monkey, 1 h
[26] = Metabolic stability in human liver microsomes assessed as compound remaining at 1 uM incubated for 60 mins in presence of NADPH/UDPGA by LC-MS/MS analysis; type: ADME, Microsome; conditions: 1 h
U-937 [27] = assay: Antimigratory activity against human U-937 cells assessed as inhibition of 7alpha,25-dihydroxycholesterol induced cell migration by CCK-8 method; type: functional, cell-based
U-937 [28] = assay: Antiinflammatory activity in human U-937 cells assessed as reversal of 7alpha,25-dihydroxycholesterol induced TNFA gene expression at 0.1 to 10 uM incubated for 24 hrs by qPCR analysis; type: functional, cell-based; conditions: dose 0.1-10 µM
U-937 [29] = assay: Antiinflammatory activity in human U-937 cells assessed as reversal of 7alpha,25-dihydroxycholesterol induced IL1B gene expression at 0.1 to 10 uM incubated for 24 hrs by qPCR analysis; type: functional, cell-based; conditions: dose 0.1-10 µM
U-937 [30] = assay: Cytotoxicity against human U-937 cells measured after 72 hrs by CCK8 method; type: functional, cell-based
Mus musculus [31] = assay: Antiinflammatory activity against C57BL/6 mouse assessed as mitigation of DSS induced body weight loss administered as po measured for 10 days; type: functional, organism-based; conditions: dose 3-10 mg/kg, time 10.0 day
Mus musculus [32] = assay: Antiinflammatory activity against DSS-induced colitis C57BL/6 mouse model assessed as reduction in disease activity index (DAI) score at 3 mg/kg, po measured for 8 days; type: functional, organism-based; conditions: time 8.0 day
Mus musculus [33] = assay: Antiinflammatory activity against DSS-induced colitis C57BL/6 mouse model assessed as amelioration of inflammatory response at 3 to 10 mg/kg, po by H and E staining based analysis; type: functional, organism-based; conditions: dose 3-10 mg/kg
Mus musculus [34] = assay: Antiinflammatory activity against DSS-induced colitis C57BL/6 mouse model assessed as amelioration of colonic damage at 3 to 10 mg/kg, po by H and E staining based analysis; type: functional, organism-based; conditions: dose 3-10 mg/kg
Mus musculus [35] = assay: Antiinflammatory activity against DSS-induced colitis C57BL/6 mouse model assessed as reduction in Tnf-alpha expression in colon at 3 to 10 mg/kg, po; type: functional, organism-based; conditions: dose 3-10 mg/kg
Mus musculus [36] = assay: Antiinflammatory activity against DSS-induced colitis C57BL/6 mouse model assessed as reduction in Il1-beta expression in colon at 3 to 10 mg/kg, po; type: functional, organism-based; conditions: dose 3-10 mg/kg
Mus musculus [37] = assay: Antiinflammatory activity against DSS-induced colitis C57BL/6 mouse model assessed as increase in CREB phosphorylation level at 3 to 10 mg/kg, po by immunohistochemical analysis; type: functional, organism-based; conditions: dose 3-10 mg/kg
[38] = Toxicity in C57BL/6 mouse assessed as effect on heart at 3 mg/kg, po by H and E staining based analysis; type: organism-based; conditions: in vivo
[39] = Toxicity in C57BL/6 mouse assessed as effect on liver at 3 mg/kg, po by H and E staining based analysis; type: organism-based; conditions: in vivo
[40] = Toxicity in C57BL/6 mouse assessed as effect on spleen at 3 mg/kg, po by H and E staining based analysis; type: organism-based; conditions: in vivo
[41] = Toxicity in C57BL/6 mouse assessed as effect on lung at 3 mg/kg, po by H and E staining based analysis; type: organism-based; conditions: in vivo
[42] = Toxicity in C57BL/6 mouse assessed as effect on kidney at 3 mg/kg, po by H and E staining based analysis; type: organism-based; conditions: in vivo
[43] = Toxicity in C57BL/6 mouse assessed as drug tolerance at 3 mg/kg, po by H and E staining based analysis; type: organism-based; conditions: in vivo
[44] = target: T1, G-protein coupled receptor 183; assay: Antagonist activity at GPR183 (unknown origin) incubated for 30 mins by calcium mobilization assay; type: functional

T1 sequence (P32249 whole entry): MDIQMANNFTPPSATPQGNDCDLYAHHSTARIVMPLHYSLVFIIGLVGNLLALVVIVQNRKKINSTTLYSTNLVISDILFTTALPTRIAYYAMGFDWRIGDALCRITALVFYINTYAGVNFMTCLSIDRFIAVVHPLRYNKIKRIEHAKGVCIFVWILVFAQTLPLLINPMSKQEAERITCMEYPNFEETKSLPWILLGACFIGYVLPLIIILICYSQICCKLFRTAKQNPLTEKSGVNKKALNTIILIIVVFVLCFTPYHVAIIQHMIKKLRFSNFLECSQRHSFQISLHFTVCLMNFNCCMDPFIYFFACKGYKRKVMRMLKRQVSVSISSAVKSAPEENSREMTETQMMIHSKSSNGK

- pIC50 [1]: 8.12
SMILES: Cc1cc2ccc(C(=O)N3CCN(C(=O)/C=C/c4ccc(Br)cc4)CC3)cc2[nH]1

- half-life [5]: 1.61 h
- Cmax [6]: 828 ng/mL
- AUC(0-inf) [7]: 1920 ng·h/mL
- Vd [8]: 1.21 L/kg
- clearance [9]: 8.72 mL/min/kg
- half-life [10]: 2.24 h
- Cmax [11]: 817 ng/mL
- AUC(0-inf) [12]: 4090 ng·h/mL
- bioavailability [13]: 71.1%
- t1/2 [14]: 2.52 h
- t1/2 [15]: 2.35 h
- half-life at 10 µM [16]: 6.42 h
- t1/2 [17]: 1.36 h
- pIC50 [18]: 9.09
- pIC50 [19]: 8.74
- Kb [20]: 0.617 nM
- pIC50 [21]: 9.06
- remaining at 1 h, 1 µM [22]: 95.9%
- Stability [23]: 96.2%
- remaining at 1 h, 1 µM [24]: 96.5%
- Stability [25]: 91.5%
- Stability [26]: 98.4%
- pIC50 (U-937 [27]): 9.14
- pIC50 [1]: 9.09
SMILES: Nc1nc2ccc(C(=O)N3CCN(C(=O)/C=C/c4ccc(Br)cc4)CC3)cc2s1
- Activity (U-937 [28]): Active
- Activity (U-937 [29]): Active
- Activity (U-937 [30]): inactive
- Activity (Mus musculus [31]): Dose-Dependent Effect
- Activity (Mus musculus [32]): Active
- Activity (Mus musculus [33]): Active
- Activity (Mus musculus [34]): Active
- Activity (Mus musculus [35]): Active
- Activity (Mus musculus [36]): Active
- Activity (Mus musculus [37]): Active
- Activity [38]: Non-Toxic
- Activity [39]: Non-Toxic
- Activity [40]: Non-Toxic
- Activity [41]: Non-Toxic
- Activity [42]: Non-Toxic
- Activity [43]: Non-Toxic

- pIC50 [1]: < 5.00
SMILES: Cc1nc2ccc(C(=O)N3CCN(C(=O)/C=C/c4ccc(Br)cc4)CC3)cc2[nH]1

- pIC50 [44]: 8.08
SMILES: COc1cc(C(C)NC(=O)Cc2c(C)nc(C)[nH]c2=O)cc(OC)c1OC (stereo not given)

- pIC50 [44]: 7.86
SMILES: COc1cc2c(cc1OC)CN(C(=O)NOCc1ccccc1)CC2

- pIC50 [1]: 7.18
SMILES: COc1ccc(C(=O)NCC2(F)CCN(C(=O)/C=C/c3ccc(Br)cc3)CC2)cc1

- pIC50 [1]: 7.72
SMILES: CC(=O)Nc1nc2ccc(C(=O)N3CCN(C(=O)/C=C/c4ccc(Br)cc4)CC3)cc2s1

- pIC50 [1]: 6.41
SMILES: Nc1nc2ccc(C(=O)N3CCN(C(=O)/C=C/c4ccc5c(c4)CCO5)CC3)cc2s1

- pIC50 [1]: 7.13
SMILES: Nc1nc2ccc(C(=O)N3CCN(C(=O)/C=C/c4ccc(C(F)(F)F)c(Cl)c4)CC3)cc2s1

The next lines start with the compound.

SMILES: O=C(Nc1nc2ccc(C(=O)N3CCN(C(=O)/C=C/c4ccc(Br)cc4)CC3)cc2s1)C1CC1
- pIC50 [1]: 7.11

SMILES: Cc1c[nH]c2cc(C(=O)N3CCN(C(=O)/C=C/c4ccc(Br)cc4)CC3)ccc12
- pIC50 [1]: 7.72

SMILES: C[C@H](CCCC(C)(C)O)[C@H]1CCC2C3C(CC[C@@]21C)[C@@]1(C)CC[C@H](O)CC1=C[C@H]3O (stereo not given in full)
- pEC50 [2]: 9.82
- pEC50 [3]: 8.49
- Activity ([3]; filed as agonist, time 4.5 hrs): Dose-Dependent Effect
- pEC50 [4]: 8.33

SMILES: Nc1nc2ccc(C(=O)N3CCN(C(=O)/C=C/c4ccc(F)c(F)c4)CC3)cc2s1
- pIC50 [1]: 5.90

SMILES: COc1ccc(C(=O)N2CC3CCC(C2)N3C(=O)/C=C/c2ccc(Br)cc2)cc1
- pIC50 [1]: < 5.00

SMILES: COc1ccc(C(=O)NCC2CCN(C(=O)/C=C/c3ccc(Br)cc3)CC2)cc1
- pIC50 [1]: < 5.00

SMILES: O=C(/C=C/c1ccc(Br)cc1)N1CCN(C(=O)c2ccc3[nH]c(=O)[nH]c3c2)CC1
- pIC50 [1]: < 5.00

SMILES: N#Cc1ccc(/C=C/C(=O)N2CCN(C(=O)c3ccc4nc(N)sc4c3)CC2)cc1
- pIC50 [1]: 6.59

SMILES: Nc1nc2ccc(C(=O)N3CCN(C(=O)/C=C/c4ccc5c(c4)OC(F)(F)O5)CC3)cc2s1
- pIC50 [1]: 7.36
